Data: patent US9181183B2, “Prostaglandin D synthase inhibitory piperidine compounds” (Taiho Pharmaceutical Co., Ltd., priority 2010, dated 2015)

Target: human H-PGDS (Homo sapiens, UniProt O60760)
Assay: Hematopoietic prostaglandin D synthase (H-PGDS) inhibiting action, [14C]PGH2 to PGD2 conversion, TLC radioassay
Type: biochemical
Conditions: compound 0.1 μM; inhibition rate relative to solvent control group; [14C] prostaglandin H2 10 μM, 25° C.; read-out: H-PGDS inh. (% at 0.1 μM)
Protocol: The test was carried out according to the method of Urade, Y. et al. (J. Biol. Chem., 262, 3820-3825, (1987)). More specifically, a reaction mixture (49 μL) containing 100 mM Tris-HCl (pH 8.0), 1 mM reduced form glutathione, 0.1 mg/mL γ-globulin, human H-PGDS (q.s.), and a compound (0.1 μM) was preincubated at 25° C. for 5 minutes. A DMSO solution (final concentration: 1%) was added to the solvent control group. Subsequently, 1 μL of [^14C] prostaglandin H2 (final concentration: 10 μM) was added to start the reaction. One minute after the start of the reaction, 250 μL of a reaction stopper solution (diethylether/methanol/1M citric acid (30/4/1)) cooled with ice was added to stop the reaction. After the reaction was stopped, 50 μL of the upper layer portion (organic solvent phase) was applied to a TLC plate and developed at −20° C. for 45 minutes (developing solvent: diethylether/methanol/acetic acid (90/2/1)). After the TLC plate was dried and exposed to an imaging plate for 1 to 24 hours, the radioactivity corresponding to prostaglandin D2 (PGD2) was analyzed using an image analyzer (produced by Fujifilm Corporation). The area (%) occupied by the PGD2 band per lane and the inhibition rate (%) of each Example compound at 0.1 μM relative to the control group in each experiment were calculated.

human H-PGDS, sequence (O60760 whole entry): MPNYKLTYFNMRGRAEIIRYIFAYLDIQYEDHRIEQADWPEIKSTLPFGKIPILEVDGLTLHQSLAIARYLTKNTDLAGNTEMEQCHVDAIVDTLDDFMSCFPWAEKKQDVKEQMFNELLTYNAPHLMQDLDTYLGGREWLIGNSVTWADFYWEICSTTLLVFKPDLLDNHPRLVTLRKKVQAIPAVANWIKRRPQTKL

SMILES | inhibition at 0.1 µM [%]
O=C(Nc1nc2ccc(Br)cc2s1)N1CCC(=Cc2ccccn2)CC1 [Example 1, N-(6-bromobenzo[d]thiazol-2-yl)-4-(pyridin-2-ylmethylene)-piperidine-1-carboxamide] | 70.9
O=C(Nc1nc2ccc(-c3cccnc3)cc2s1)N1CCC(=Cc2ccccn2)CC1 [Example 3, N-(6-(pyridin-3-yl)-benzo[d]thiazol-2-yl)-4-(pyridin-2-ylmethylene)-piperidine-1-carboxamide] | 85.7
Cc1noc(C)c1-c1ccc2nc(NC(=O)N3CCC(=Cc4ccccn4)CC3)sc2c1 [Example 4, N-(6-(3,5-dimethylisoxazol-4-yl)-benzo[d]thiazol-2-yl)-4-(pyridin-2-ylmethylene)-piperidine-1-carboxamide] | 62.9
O=C(Nc1nc2ccc(-c3ccncc3)cc2s1)N1CCC(=Cc2ccccn2)CC1 [Example 5, N-(6-(pyridin-4-yl)-benzo[d]thiazol-2-yl)-4-(pyridin-2-ylmethylene)-piperidine-1-carboxamide] | 77.8
O=C(Nc1nc2ccc(-c3cncnc3)cc2s1)N1CCC(=Cc2ccccn2)CC1 [Example 6, N-(6-(pyrimidin-5-yl)-benzo[d]thiazol-2-yl)-4-(pyridin-2-ylmethylene)-piperidine-1-carboxamide] | 78.8
O=C(Nc1nc2ccc(-c3cccs3)cc2s1)N1CCC(=Cc2ccccn2)CC1 [Example 8, N-(6-(thiophen-2-yl)-benzo[d]thiazol-2-yl)-4-(pyridin-2-ylmethylene)-piperidine-1-carboxamide] | 80
COc1ncccc1-c1ccc2nc(NC(=O)N3CCC(=Cc4ccccn4)CC3)sc2c1 [Example 9, N-(6-(2-methoxypyridin-3-yl)-benzo[d]thiazol-2-yl)-4-(pyridin-2-ylmethylene)-piperidine-1-carboxamide] | 76.6
Nc1ccc2nc(NC(=O)N3CCC(=Cc4ccccn4)CC3)sc2c1 [Example 10, N-(6-aminobenzo[d]thiazol-2-yl)-4-(pyridin-2-ylmethylene)-piperidine-1-carboxamide] | 61.9
O=C(Nc1ccc2nc(NC(=O)N3CCC(=Cc4ccccn4)CC3)sc2c1)N1CCOCC1 [Example 11, N-(2-(4-(pyridin-2-ylmethylene)piperidine-1-carboxamido)benzo[d]thiazol-6-yl)morpholine-4-carboxamide] | 52.4
O=C(Nc1ncc(C(=O)N2CCCCC2)s1)N1CCC(=Cc2ccccn2)CC1 [Example 17, N-(5-(piperidin-1-yl-carbonyl)thiazol-2-yl)-4-(pyridin-2-ylmethylene)piperidine-1-carboxamide] | 65
O=C(O)c1ccc(-c2cnc(NC(=O)N3CCC(=Cc4ccccn4)CC3)s2)cc1 [Example 20, 4-(2-(4-(pyridin-2-ylmethylene)piperidine-1-carboxamido)thiazol-5-yl)benzoic acid] | 61.4
CS(=O)(=O)NC(=O)c1ccc(-c2cnc(NC(=O)N3CCC(=Cc4ccccn4)CC3)s2)cc1 [Example 23, N-(5-(4-(methylsulfonylcarbamoyl)phenyl)thiazol-2-yl)-4-(pyridin-2-ylmethylene)piperidine-1-carboxamide] | 65.9
O=C(O)c1ccc(-c2ccc(NC(=O)N3CCC(=Cc4ccccn4)CC3)cn2)cc1 [Example 28, 4-(5-(4-(pyridin-2-ylmethylene)piperidine-1-carboxamido)pyridin-2-yl)benzoic acid] | 53.2
CS(=O)(=O)NC(=O)c1ccc(-c2ccc(NC(=O)N3CCC(=Cc4ccccn4)CC3)cn2)cc1 [Example 32, N-(6-(4-(methylsulfonylcarbamoyl)phenyl)pyridin-3-yl)-4-(pyridin-2-ylmethylene)piperidine-1-carboxamide] | 76.1
O=C(O)c1ccc(-c2ncc(NC(=O)N3CCC(=Cc4ccccn4)CC3)cn2)cc1 [Example 33, 4-(5-(4-(pyridin-2-ylmethylene)piperidine-1-carboxamido)pyrimidin-2-yl)benzoic acid] | 50
O=C(NC1CCN(c2ccc(CCn3ccnn3)cc2)CC1)N1CCC(=Cc2cc(F)ccc2F)CC1 [Example 34, N-(1-(4-(2-(1H-1,2,3-triazol-1-yl)ethyl)phenyl)piperidin-4-yl)-4-(2,5-difluorobenzylidene)piperidine-1-carboxamide] | 77.8
COc1ccc(CN2CCC(NC(=O)N3CCC(=Cc4cc(F)ccc4F)CC3)CC2)cc1Cl [Example 36, N-(1-(3-chloro-4-methoxybenzyl)piperidin-4-yl)-4-(2,5-difluorobenzylidene)piperidine-1-carboxamide] | 58.3
N#Cc1cccc(CN2CCC(NC(=O)N3CCC(=Cc4cc(F)ccc4F)CC3)CC2)c1 [Example 37, N-(1-(3-cyanobenzyl)piperidin-4-yl)-4-(2,5-difluorobenzylidene)piperidine-1-carboxamide] | 64.8
O=C(NC1CCN(C(=O)C(F)(F)F)CC1)N1CCC(=Cc2cc(F)ccc2F)CC1 [Example 38, 4-(2,5-difluorobenzylidene)-N-(1-(2,2,2-trifluoroacetyl)piperidin-4-yl)piperidine-1-carboxamide] | 82.9
CC(F)(F)C(=O)N1CCC(NC(=O)N2CCC(=Cc3cc(F)ccc3F)CC2)CC1 [Example 40, 4-(2,5-difluorobenzylidene)-N-(1-(2,2-difluoropropanoyl)piperidin-4-yl)piperidine-1-carboxamide] | 71.4

The next lines start with the values.

inhibition at 0.1 µM [%] | SMILES
74.2 | COc1ccc(-c2ccc3nc(NC(=O)N4CCC(=Cc5ccccn5)CC4)sc3c2)cn1 [Example 7, N-(6-(2-methoxypyridin-5-yl)-benzo[d]thiazol-2-yl)-4-(pyridin-2-ylmethylene)-piperidine-1-carboxamide]
53.9 | O=C(Nc1ccc(CCn2ccnn2)cc1)c1cnc(NC(=O)N2CCC(=Cc3ccccn3)CC2)s1 [Example 14, N-(4-(2-(1H-1,2,3-triazol-1-yl)ethyl)phenyl)-2-(4-(pyridin-2-ylmethylene)piperidine-1-carboxamido)thiazole-5-carboxamide]
52.7 | O=C(Nc1ccc(N2CCCCC2)cc1)c1cnc(NC(=O)N2CCC(=Cc3ccccn3)CC2)s1 [Example 16, N-(4-(piperidin-1-yl)phenyl)-2-(4-(pyridin-2-ylmethylene)piperidine-1-carboxamido)thiazole-5-carboxamide]
65.1 | O=C(O)c1ccc(NC(=O)c2cnc(NC(=O)N3CCC(=Cc4ccccn4)CC3)s2)cc1 [Example 18, 4-(2-(4-(pyridin-2-ylmethylene)piperidine-1-carboxamido)thiazole-5-carboxamido)benzoic acid]
66.5 | O=C(Nc1nccs1)c1ccc(-c2cnc(NC(=O)N3CCC(=Cc4ccccn4)CC3)s2)cc1 [Example 22, 4-(pyridin-2-ylmethylene)-N-(5-(4-(thiazol-2-ylcarbamoyl)phenyl)thiazol-2-yl)piperidine-1-carboxamide]
68.2 | O=C(NS(=O)(=O)c1ccccc1)c1ccc(-c2cnc(NC(=O)N3CCC(=Cc4ccccn4)CC3)s2)cc1 [Example 24, N-(5-(4-(phenylsulfonylcarbamoyl)phenyl)thiazol-2-yl)-4-(pyridin-2-ylmethylene)piperidine-1-carboxamide]
57.4 | O=C(Nc1ccc(-c2cnc(NC(=O)N3CCC(=Cc4ccccn4)CC3)s2)cc1)c1cscn1 [Example 26, N-(4-(2-(4-(pyridin-2-ylmethylene)piperidine-1-carboxamido)thiazol-5-yl)phenyl)thiazole-4-carboxamide]
50.2 | O=C(O)c1ccc(-c2cnc(NC(=O)N3CCC(=Cc4ccccn4)CC3)s2)nc1 [Example 27, 6-(2-(4-(pyridin-2-ylmethylene)piperidine-1-carboxamido)thiazol-5-yl)nicotinic acid]
78.8 | O=C(Nc1nccs1)c1ccc(-c2ccc(NC(=O)N3CCC(=Cc4ccccn4)CC3)cn2)cc1 [Example 29, 4-(pyridin-2-ylmethylene)-N-(6-(4-(thiazol-2-ylcarbamoyl)phenyl)pyridin-3-yl)piperidine-1-carboxamide]
67.1 | O=C(NC1CC1)c1ccc(-c2ccc(NC(=O)N3CCC(=Cc4ccccn4)CC3)cn2)cc1 [Example 30, N-(6-(4-(cyclopropylcarbamoyl)phenyl)pyridin-3-yl)-4-(pyridin-2-ylmethylene)piperidine-1-carboxamide]
52.9 | CN(C)C(=O)c1ccc(-c2ccc(NC(=O)N3CCC(=Cc4ccccn4)CC3)cn2)cc1 [Example 31, N-(6-(4-(dimethylcarbamoyl)phenyl)pyridin-3-yl)-4-(pyridin-2-ylmethylene)piperidine-1-carboxamide]
77.2 | O=C(NC1CCN(CC(F)(F)F)CC1)N1CCC(=Cc2cc(F)ccc2F)CC1 [Example 35, 4-(2,5-difluorobenzylidene)-N-(1-(2,2,2-trifluoroethyl)piperidin-4-yl)piperidine-1-carboxamide]
59 | COC(=O)c1ccc(N2CCC(NC(=O)N3CCC(=Cc4cc(F)ccc4F)CC3)CC2)cc1 [Example 41, Methyl 4-(4-(4-(2,5-difluorobenzylidene)piperidine-1-carboxamido)piperidin-1-yl)benzoate]
